# Test results from patent US20240349718A1, “COMPOSITION” (priority 2021, published 2024).
# Read-outs that look alike come from different tables or passages of the source.
# Test: Lewis acidity: reaction rate constant of CoTPP and oxygen in the presence of a Lewis acid
# Format: physicochemical
# Procedure: Acetonitrile (MeCN) containing cobalt tetraphenylporphyrin (CoTPP), saturated O2, and a substance to be measured for the Lewis acidity (which is, for example, a cation of metal or the like and is represented by M^n+ in the following reaction scheme (A)) in the following reaction scheme (A) is measured for a change in an ultraviolet-visible absorption spectrum at room temperature. From the obtained reaction rate constant (kcat), the ΔE value (eV) as an index of the Lewis acidity can be calculated. […] The Lewis acidity of an organic compound can also be estimated from an energy level of the lowest unoccupied molecular orbital (LUMO) calculated by quantum chemical calculation.
# Examples of the reaction rate constant of CoTPP and oxygen in the presence of a Lewis acid, which is an index of the Lewis acidity measured (calculated) by the above measurement method, are shown below. In the following Table 1, numerical values represented by “kcat, M^−2s^−1” are CoTPP and oxygen in the presence of a Lewis acid. The 5 numerical value represented by “LUMO, eV” is an energy level of LUMO.
# [1] = CoTPP and oxygen in MeCN, room temperature
Compound,kcat [M^−2s^−1],kcat [1] [M^−2s^−1]
CCCC[N+](CCCC)(CCCC)CCCC.F[P-](F)(F)(F)(F)F [Tetrabutylammonium hexafluorophosphate],>0.1,–
Benzalkonium chloride,–,0.18
Benzethonium chloride,–,0.24
